Data taken from patent US10575537B2, “Saury Maillard peptide and its preparation method and application” (South China University of Technology, priority 2015, dated 2020).
Marks after values point to notes of the source that are not given here.

How the values were obtained:
[1] = target: T1, serum xanthine oxidase (XOD) (Rattus norvegicus, UniProt P22985); test: serum XOD activity in rats with hyperuricemia induced by oteracil potassium; assay type: in vivo; conditions: 30 days, peptide samples 200 mg/kg, allopurinol 50 mg/kg
T1 construct: Taking 100 μl of serum for determination of XOD; from tissue; host or cells: serum of SD male rats
Text: (§1) As the index in the following examples, the experimental method of therapeutic effects of the peptide samples on the oteracil potassium-induced hyperuricemia in rats was as follow:
(§2) Animals: 140 SPF grade SD male rats, weight 200±20 g, purchased from Laboratory Animal Center of Guangzhou University of Chinese Medicine.
(§3) Animal grouping and modeling: Taking a total of 140 healthy male SD rats, and randomly dividing them into a normal control group (20 rats) and a model group (120 rats); the model group rats were gavage with oteracil potassium (daily dose: 2 g/kg) for 7 days, then the rat were anesthetized via intraperitoneally injecting 3% pentobarbital sodium (30 mg/kg) after the last administration, their blood was taken from conjunctival (0.5 ml), then centrifuging at 4° C. and 3000 r/min for 15 min, and taking the upper serum to determine the uric acid content, and the rats in the normal control group were treated with a constant volume of solvent by intragastric administration. The rats with the uric acid content above 110 μmol/L were identified to be successful in modeling. […]

[2] = system: rats with hyperuricemia induced by oteracil potassium; test: serum uric acid content in rats with hyperuricemia induced by oteracil potassium; assay type: in vivo, rat
Text: as §1, §2
Animal grouping and modeling: Taking a total of 140 healthy male SD rats, and randomly dividing them into a normal control group (20 rats) and a model group (120 rats); the model group rats were gavage with oteracil potassium (daily dose: 2 g/kg) for 7 days, then the rat were anesthetized via intraperitoneally injecting 3% pentobarbital sodium (30 mg/kg) after the last administration, their blood was taken from conjunctival (0.5 ml), then centrifuging at 4° C. and 3000 r/min for 15 min, and taking the upper serum to determine the uric acid content, and the rats in the normal control group were treated with a constant volume of solvent by intragastric administration. The rats with the uric acid content above 110 μmol/L were identified to be successful in modeling.
The rats successful in modeling, according to the uric acid content, was randomly dividing into a model control group (constant volume solvent), a tested peptide sample group (200 mg/kg) and an allopurinol group (50 mg/kg) at 14 rats per group, and the rats were gavage with oteracil potassium (daily dose: 2 g/kg) at a dose of 10 ml/kg, with the model rats treated with a constant volume of distilled water. Administering 3% pentobarbital sodium (30 mg/kg) for 50 min at the end of administering the above-mentioned peptide samples for 10 days and 20 days, drawing the conjunctival blood (0.5 ml), and determining the serum uric acid content; after the 30th day of treatment with anti-gout peptides, drawing the celiac artery blood 5 ml after anesthesia with 3% pentobarbital sodium, and determining the content of serum creatinine and urea nitrogen in addition to determining the serum uric acid content.
Determination of serum uric acid: using the tungstic acid method and strictly following the determination method from the kit instructions.
Statistical treatment: all data is presented as “mean±standard deviation”, t test was performed to determine the significant difference between samples at the 95% confidence interval using SPSS 19.0 software.

[3] = system: serum adenosine deaminase (ADA); test: serum ADA activity in rats with hyperuricemia induced by oteracil potassium; assay type: in vivo, rat; conditions: 30 days, peptide samples 200 mg/kg, allopurinol 50 mg/kg
Text: as §1, §2, §3

[4] = system: rats with hyperuricemia induced by oteracil potassium; test: serum creatinine and urea nitrogen content in rats with hyperuricemia induced by oteracil potassium; assay type: in vivo, rat; conditions: 30 days, peptide samples 200 mg/kg, allopurinol 50 mg/kg
Text: as §1, §2, §3

T1 sequence (P22985 whole entry): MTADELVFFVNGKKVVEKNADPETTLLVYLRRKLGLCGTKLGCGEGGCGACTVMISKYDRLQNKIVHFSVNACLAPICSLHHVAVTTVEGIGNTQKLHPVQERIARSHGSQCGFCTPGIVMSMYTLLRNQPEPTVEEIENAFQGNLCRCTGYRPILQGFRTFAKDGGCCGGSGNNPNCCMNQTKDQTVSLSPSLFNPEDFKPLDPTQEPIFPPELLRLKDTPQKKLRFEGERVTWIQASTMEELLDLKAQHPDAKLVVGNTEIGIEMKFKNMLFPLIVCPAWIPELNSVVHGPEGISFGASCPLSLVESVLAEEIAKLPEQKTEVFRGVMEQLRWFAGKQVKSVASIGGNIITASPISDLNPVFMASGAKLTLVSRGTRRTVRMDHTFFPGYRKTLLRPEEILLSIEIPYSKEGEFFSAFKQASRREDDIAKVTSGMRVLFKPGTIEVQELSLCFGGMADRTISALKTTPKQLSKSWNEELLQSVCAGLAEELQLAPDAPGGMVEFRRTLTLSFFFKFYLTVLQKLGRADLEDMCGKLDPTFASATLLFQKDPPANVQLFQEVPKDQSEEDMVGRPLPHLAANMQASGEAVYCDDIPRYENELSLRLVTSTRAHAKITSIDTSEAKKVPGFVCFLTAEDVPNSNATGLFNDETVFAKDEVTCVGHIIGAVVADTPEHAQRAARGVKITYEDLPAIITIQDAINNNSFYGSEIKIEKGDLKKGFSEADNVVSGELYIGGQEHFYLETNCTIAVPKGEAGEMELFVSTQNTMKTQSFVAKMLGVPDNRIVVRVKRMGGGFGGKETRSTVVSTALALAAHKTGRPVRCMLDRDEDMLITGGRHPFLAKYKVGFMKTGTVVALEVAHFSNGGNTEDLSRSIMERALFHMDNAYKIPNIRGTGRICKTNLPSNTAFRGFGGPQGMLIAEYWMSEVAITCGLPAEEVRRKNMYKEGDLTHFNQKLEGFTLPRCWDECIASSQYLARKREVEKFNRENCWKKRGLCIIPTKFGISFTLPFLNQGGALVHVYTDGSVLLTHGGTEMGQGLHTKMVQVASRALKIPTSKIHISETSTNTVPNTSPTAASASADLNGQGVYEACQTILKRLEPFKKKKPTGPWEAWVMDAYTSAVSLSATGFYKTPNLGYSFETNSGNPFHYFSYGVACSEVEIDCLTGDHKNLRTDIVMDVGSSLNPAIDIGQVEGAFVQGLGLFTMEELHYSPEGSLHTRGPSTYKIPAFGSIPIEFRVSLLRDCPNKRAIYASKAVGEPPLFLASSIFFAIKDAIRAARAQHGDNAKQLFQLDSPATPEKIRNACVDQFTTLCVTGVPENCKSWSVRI

XOD [1]: 8.61 ± 2.46^b U/L
SMILES: Oc1ncnc2[nH]ncc12 [Allopurinol]
effect on serum uric acid content, in words ([2]; hyperuricemia model rats, compared with model group): significantly decreased (p<0.01) | Uric acid value, before administration ([2]; serum, SD male rats after modeling with oteracil potassium 2 g/kg daily, baseline before administration): 230.4 ± 19.1 µmol/L | Uric acid value, treatment for 10 days ([2]; serum, gavage, peptide samples 200 mg/kg, allopurinol 50 mg/kg, 10 days): 89.5 ± 22.4^b μmol/L | Uric acid value, treatment for 20 days ([2]; serum, gavage, peptide samples 200 mg/kg, allopurinol 50 mg/kg, 20 days): 94.5 ± 13.9^b μmol/L | Uric acid value, treatment for 30 days ([2]; serum, gavage, peptide samples 200 mg/kg, allopurinol 50 mg/kg, 30 days): 92.8 ± 20.9^b μmol/L | ADA [3]: 12.28 ± 7.88^b U/ml | Creatinine [4]: 41.8 ± 13.2^b μmol/L
